Measurements reported in patent US12427139B2, “Applications for nicardipine in preparing anti-lung cancer products” (SHANGHAI JIAO TONG UNIVERSITY, priority 2015, dated 2025).

Columns and labels:
Assay type in all cases: cell-based
[1] = test system: NCI-H524 non-small cell lung cancer cells; experiment: CellTiter-Glo luminescent cell viability assay, NCI-H524 drug screening plate; details: for IC50: NCI-H524 cells, CellTiter-Glo
Experimental: (§1) In example 1, CELLTITER-GLO was used to test nicardipine against non-small cell lung cancer. n) NCI-H524 cells and NCI-H446 cells were handled as described above, and NCI-H524 96-well cell culture plates and NCI-H446 96-well cell culture plates were obtained, respectively. The complete medium for NCI-H524 cells was RPMI-1640 (a live product), Cat #A1049101, with a cells/well density of 16000. a) DMSO was used to dilute the analyte nicardipine to 20 mM for use. b) 79 μL of the 20 mM analyte prepared in step a) was added to the first well in the first row of the dilution plate, and then 54 μL of DMSO solution was added to the second through ninth wells of the first row. 25 μL of solution was aspirated from the first to the second well, and after mixing well 25 μL of solution was aspirated from the second to the third well, and this was repeated until the 9th well in order to ensure that 3.16 dilution of the medication would be carried out one-by-one. b) 95 μl of cell-specific complete medium was added to the working plate, each medication to 9 wells. […] Testing • a) Before testing, the NCI-H524 96-well drug screening plate and the NCI-H446 96-well drug screening plate described in 3 above were stabilized to room temperature for 20-30 minutes. • b) An inverted microscope was used to observe the conditions of each group of cells in the culture plate and their death patterns, and any abnormal conditions were noted and retested. • c) 100 μl of CellTiter-Glo reagent (prepared as described in 1 above) was added to all drug screening plates and mixed evenly. • d) It was thoroughly oscillated in a 96-well microplate oscillator for 2 minutes to allow the cells to undergo full lysis. • e) It was stored away from light at room temperature for 15 minutes before carrying out luminescent signal detection to ensure signal stability. • f) An EnSpire multi-function plate reader was used at 570 nm to read the luminescent signals. • g) Data was processed and analyzed.

[2] = test system: SNU-449 human hepatoma cells; experiment: CellTiter-Glo luminescent cell viability assay, SNU-449 cells (same method)
Experimental: (§2) In the examples below, the product sources for the NCI-H524 non-small cell lung cancer cells, the NCI-H446 small-cell lung cancer cells, the SNU-449 human hepatoma cells, and the NCI-H810 human lung cancer cells, are as follows: c) The NCI-H524 96 well cell plates and the NCI-H446 96-well cell plates prepared in step 1 were removed from the incubator, and 10 μl of the cell culture media (10× final concentration) with varying drug concentrations as described in b) above was added to the NCI-H524 96-well cell culture and the NCI-H446 96-well cell culture plate row-by-row as shown in FIG. 1. It was placed into a CO2 incubator at 37° C. for 72 hours, obtaining the NCI-H524 96-well drug screening plate and the NCI-H446 96-well drug screening plate. • a) The CellTiter-Glo reagent buffer was thawed before using and stabilized to room temperature for use. • b) The CellTiter-Glo reagent frozen substrate was thawed before using and stabilized to room temperature for use. • c) 100 ml of stabilized CellTiter-Glo buffer was added to the container with CellTiter-Glo reagent frozen substrate to adequately resuspend it to form an enzyme/substrate mixture, also referred to as the CellTiter-Glo assay reagent. • d) It was gently mixed and vortexed and inverted multiple times to achieve a uniform solution. In general, the CellTiter-Glo substrate reagent will adequately dissolve within 1 minute. […]

[3] = test system: NCI-H446 small-cell lung cancer cells; experiment: CellTiter-Glo luminescent cell viability assay, NCI-H446 drug screening plate; details: for IC50: NCI-H446 cells, CellTiter-Glo
Experimental: as §1, with “for NCI-H446” for “for NCI-H524”, “of 8000.” for “of 16000.”

[4] = test system: NCI-H810 human lung cancer cells; experiment: CellTiter-Glo luminescent cell viability assay, NCI-H810 cells (same method)
Experimental: as §2

**Q.** With `COC(=O)C1=C(C)NC(C)=C(C(=O)OCCN(C)Cc2ccccc2)C1c1cccc([N+](=O)[O-])c1` (centres unmarked) [nicardipine] as the compound, how does the IC50 ([1]; Homo sapiens, NCI-H524, 72 h) read?
**A.** The IC50 was 18.6 µM.

**Q.** What about the EC50 ([1]; Homo sapiens, FIG. 2, nicardipine sensitivity to non-small cell lung cancer (NCI-H524), 72 hours) of the same compound?
**A.** Its EC50 is 20.3 µM.

**Q.** What about the IC50 ([1]; 72 hours) of the same compound?
**A.** Its IC50 is 18.6 µM.

**Q.** And the IC50 [2]?
**A.** Its IC50 is at least 100 µM.

**Q.** What about the IC50 ([3]; Homo sapiens, NCI-H446, 72 h) of the same compound?
**A.** The IC50 was 18.4 µM.

**Q.** And the EC50 ([3]; Homo sapiens, FIG. 3, nicardipine sensitivity to small cell lung cancer (NCI-H446), 72 hours)?
**A.** The EC50 was 18 µM.

**Q.** What about the IC50 ([3]; 72 hours) of the same compound?
**A.** The IC50 was 18.4 µM.

**Q.** And the IC50 [4]?
**A.** Its IC50 is at least 100 µM.
